Assay results from patent US8658604B2, “Template-fixed beta-hairpin peptidomimetics with protease inhibitory activity” (Polyphor Ltd, priority 2005, dated 2014).
Where a SMILES comes first, the peptide text is derived from it.

Target: T1, Elastase from human neutrophils (Homo sapiens, UniProt P08246)
T1 sequence (P08246 30-267): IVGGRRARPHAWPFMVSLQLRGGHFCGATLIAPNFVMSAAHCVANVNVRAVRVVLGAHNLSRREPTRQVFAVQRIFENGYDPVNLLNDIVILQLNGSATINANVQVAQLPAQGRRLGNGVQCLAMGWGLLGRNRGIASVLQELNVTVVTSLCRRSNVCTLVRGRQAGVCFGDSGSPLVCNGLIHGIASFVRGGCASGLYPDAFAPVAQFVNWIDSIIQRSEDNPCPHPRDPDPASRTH
Test: Enzymatic assay, elastase
Conditions: Elastase IC50

SMILES	IC50
CCCC[C@@H]1NC(=O)[C@@H]2CCCN2C(=O)[C@H]2CCCN2C(=O)[C@H](Cc2ccc(O)cc2)NC(=O)[C@H](CCCNC(=N)N)NC(=O)[C@H](CCC(N)=O)NC(=O)[C@@H]2CCCN2C(=O)[C@@H]2CCCN2C(=O)[C@H]([C@@H](C)CC)NC(=O)[C@H](CO)NC(=O)[C@H](C)NC(=O)[C@H]([C@@H](C)O)NC(=O)[C@H](CCC(N)=O)NC1=O [Ex. 107] (HELM PEPTIDE1{[Nle].Q.T.A.S.I.P.P.Q.R.Y.[dP].P}$PEPTIDE1,PEPTIDE1,1:R1-13:R2$$$V2.0)	51 nM
CCCC[C@@H]1NC(=O)[C@@H]2CCCN2C(=O)[C@H]2CCCN2C(=O)[C@H](Cc2ccc(O)cc2)NC(=O)[C@H](CCSC)NC(=O)[C@H](CCC(N)=O)NC(=O)[C@@H]2CCCN2C(=O)[C@@H]2CCCN2C(=O)[C@H]([C@@H](C)CC)NC(=O)[C@H](CO)NC(=O)[C@H](C)NC(=O)[C@H]([C@@H](C)O)NC(=O)[C@H]([C@@H](C)O)NC1=O [Ex. 108] (HELM PEPTIDE1{[Nle].T.T.A.S.I.P.P.Q.M.Y.[dP].P}$PEPTIDE1,PEPTIDE1,1:R1-13:R2$$$V2.0)	31 nM
CCCC[C@@H]1NC(=O)[C@@H]2CCCN2C(=O)[C@H]2CCCN2C(=O)[C@H](Cc2ccc(O)cc2)NC(=O)[C@H](CCC(N)=O)NC(=O)[C@H](CCC(N)=O)NC(=O)[C@@H]2CCCN2C(=O)[C@@H]2CCCN2C(=O)[C@H]([C@@H](C)CC)NC(=O)[C@H](CO)NC(=O)[C@H](C)NC(=O)[C@H]([C@@H](C)O)NC(=O)[C@H]([C@@H](C)O)NC1=O [Ex. 110] (HELM PEPTIDE1{[Nle].T.T.A.S.I.P.P.Q.Q.Y.[dP].P}$PEPTIDE1,PEPTIDE1,1:R1-13:R2$$$V2.0)	38 nM
CCCC[C@@H]1NC(=O)[C@@H]2CCCN2C(=O)[C@H]2CCCN2C(=O)[C@H](Cc2ccc(O)cc2)NC(=O)[C@H](CO)NC(=O)[C@H](CCC(N)=O)NC(=O)[C@@H]2CCCN2C(=O)[C@@H]2CCCN2C(=O)[C@H]([C@@H](C)CC)NC(=O)[C@H](CO)NC(=O)[C@H](C)NC(=O)[C@H]([C@@H](C)O)NC(=O)[C@H](CCC(N)=O)NC1=O [Ex. 111] (HELM PEPTIDE1{[Nle].Q.T.A.S.I.P.P.Q.S.Y.[dP].P}$PEPTIDE1,PEPTIDE1,1:R1-13:R2$$$V2.0)	46 nM
CCCC[C@@H]1NC(=O)[C@@H]2CCCN2C(=O)[C@H]2CCCN2C(=O)[C@H](Cc2ccc(O)cc2)NC(=O)[C@@H]2CSSC[C@H](NC1=O)C(=O)N[C@@H]([C@@H](C)O)C(=O)N[C@@H](C)C(=O)N[C@@H](CO)C(=O)N[C@@H](CC(C)C)C(=O)N1CCC[C@H]1C(=O)N1CCC[C@H]1C(=O)N[C@@H](Cc1ccc(O)cc1)C(=O)N2 [Ex. 113] (HELM PEPTIDE1{[Nle].C.T.A.S.L.P.P.Y.C.Y.[dP].P}$PEPTIDE1,PEPTIDE1,2:R3-10:R3|PEPTIDE1,PEPTIDE1,1:R1-13:R2$$$V2.0)	35 nM
CCCC[C@@H]1NC(=O)[C@@H]2CCCN2C(=O)[C@@H](CO)NC(=O)[C@H](Cc2ccc(O)cc2)NC(=O)[C@@H]2CSSC[C@H](NC1=O)C(=O)N[C@@H]([C@@H](C)O)C(=O)N[C@@H](C)C(=O)N[C@@H](CO)C(=O)N[C@@H]([C@@H](C)CC)C(=O)N1CCC[C@H]1C(=O)N1CCC[C@H]1C(=O)N[C@@H](CCC(N)=O)C(=O)N2 [Ex. 118] (HELM PEPTIDE1{A.S.I.P.P.Q.C.Y.[dS].P.[Nle].C.T}$PEPTIDE1,PEPTIDE1,7:R3-12:R3|PEPTIDE1,PEPTIDE1,1:R1-13:R2$$$V2.0)	43 nM
CCCC[C@@H]1NC(=O)[C@@H]2CCCN2C(=O)[C@@H](C(C)C)NC(=O)[C@H](Cc2ccc(O)cc2)NC(=O)[C@@H]2CSSC[C@H](NC1=O)C(=O)N[C@@H]([C@@H](C)O)C(=O)N[C@@H](C)C(=O)N[C@@H](CO)C(=O)N[C@@H]([C@@H](C)CC)C(=O)N1CCC[C@H]1C(=O)N1CCC[C@H]1C(=O)N[C@@H](CCC(N)=O)C(=O)N2 [Ex. 119] (HELM PEPTIDE1{A.S.I.P.P.Q.C.Y.[dV].P.[Nle].C.T}$PEPTIDE1,PEPTIDE1,7:R3-12:R3|PEPTIDE1,PEPTIDE1,1:R1-13:R2$$$V2.0)	45 nM
CCCC[C@@H]1NC(=O)[C@H]([C@@H](C)O)NC(=O)[C@@H]([C@H](C)O)NC(=O)[C@H](Cc2ccc(O)cc2)NC(=O)[C@@H]2CSSC[C@H](NC1=O)C(=O)N[C@@H]([C@@H](C)O)C(=O)N[C@@H](C)C(=O)N[C@@H](CO)C(=O)N[C@@H]([C@@H](C)CC)C(=O)N1CCC[C@H]1C(=O)N1CCC[C@H]1C(=O)N[C@@H](CCC(N)=O)C(=O)N2 [Ex. 126] (HELM PEPTIDE1{A.S.I.P.P.Q.C.Y.[dT].T.[Nle].C.T}$PEPTIDE1,PEPTIDE1,7:R3-12:R3|PEPTIDE1,PEPTIDE1,1:R1-13:R2$$$V2.0)	36 nM
CCCC[C@@H]1NC(=O)[C@H]([C@@H](C)O)NC(=O)[C@@H](Cc2ccccc2)NC(=O)[C@H](Cc2ccc(O)cc2)NC(=O)[C@@H]2CSSC[C@H](NC1=O)C(=O)N[C@@H]([C@@H](C)O)C(=O)N[C@@H](C)C(=O)N[C@@H](CO)C(=O)N[C@@H]([C@@H](C)CC)C(=O)N1CCC[C@H]1C(=O)N1CCC[C@H]1C(=O)N[C@@H](CCC(N)=O)C(=O)N2 [Ex. 128] (HELM PEPTIDE1{A.S.I.P.P.Q.C.Y.[dF].T.[Nle].C.T}$PEPTIDE1,PEPTIDE1,7:R3-12:R3|PEPTIDE1,PEPTIDE1,1:R1-13:R2$$$V2.0)	40 nM
CCCCCCCC[C@@H]1NC(=O)[C@H](CO)NC(=O)[C@H](C)NC(=O)[C@H]([C@@H](C)O)NC(=O)[C@@H]2CSSC[C@H](NC(=O)[C@H](CCC(N)=O)NC(=O)[C@@H]3CCCN3C(=O)[C@@H]3CCCN3C1=O)C(=O)N[C@@H](CCC(N)=O)C(=O)N1CCC[C@@H]1C(=O)N1CCC[C@H]1C(=O)N[C@@H](CCCC)C(=O)N2 [Ex. 129] (HELM PEPTIDE1{[Nle].C.T.A.S.[CCCCCCCC[C@H](N[*:1])C(=O)[*:2]].P.P.Q.C.Q.[dP].P}$PEPTIDE1,PEPTIDE1,2:R3-10:R3|PEPTIDE1,PEPTIDE1,1:R1-13:R2$$$V2.0)	30 nM
CC[C@H](C)[C@@H]1NC(=O)[C@H](CO)NC(=O)[C@H](C)NC(=O)[C@H]([C@@H](C)O)NC(=O)[C@H](CCC(=O)O)NC(=O)[C@H](CCc2ccccc2)NC(=O)[C@@H]2CCCN2C(=O)[C@H]2CCCN2C(=O)[C@H](Cc2ccc(O)cc2)NC(=O)[C@H](CCCCN)NC(=O)[C@H](CCC(N)=O)NC(=O)[C@@H]2CCCN2C(=O)[C@@H]2CCCN2C1=O [Ex. 132] (HELM PEPTIDE1{[O=C([C@H](CCc1ccccc1)N[*:1])[*:2]].E.T.A.S.I.P.P.Q.K.Y.[dP].P}$PEPTIDE1,PEPTIDE1,1:R1-13:R2$$$V2.0)	26 nM
CC[C@H](C)[C@@H]1NC(=O)[C@H](CO)NC(=O)[C@H](C)NC(=O)[C@H]([C@@H](C)O)NC(=O)[C@H]([C@@H](C)O)NC(=O)[C@H](CCc2ccccc2)NC(=O)[C@@H]2CCCN2C(=O)[C@H]2CCCN2C(=O)[C@H](Cc2ccc(O)cc2)NC(=O)[C@H](CCC(N)=O)NC(=O)[C@H](CCC(N)=O)NC(=O)[C@@H]2CCCN2C(=O)[C@@H]2CCCN2C1=O [Ex. 134] (HELM PEPTIDE1{[O=C([C@H](CCc1ccccc1)N[*:1])[*:2]].T.T.A.S.I.P.P.Q.Q.Y.[dP].P}$PEPTIDE1,PEPTIDE1,1:R1-13:R2$$$V2.0)	23 nM
CCCCCCCC[C@@H]1NC(=O)[C@H](CO)NC(=O)[C@H](C)NC(=O)[C@H]([C@@H](C)O)NC(=O)[C@H]([C@@H](C)O)NC(=O)[C@H](CCCC)NC(=O)[C@@H]2CCCN2C(=O)[C@H]2CCCN2C(=O)[C@H](Cc2ccc(O)cc2)NC(=O)[C@H](CCC(N)=O)NC(=O)[C@H](CCC(N)=O)NC(=O)[C@@H]2CCCN2C(=O)[C@@H]2CCCN2C1=O [Ex. 135] (HELM PEPTIDE1{[Nle].T.T.A.S.[CCCCCCCC[C@H](N[*:1])C(=O)[*:2]].P.P.Q.Q.Y.[dP].P}$PEPTIDE1,PEPTIDE1,1:R1-13:R2$$$V2.0)	23 nM
CCCC[C@@H]1NC(=O)[C@@H]2CCCN2C(=O)[C@H]2CCCN2C(=O)[C@H](Cc2ccc(O)cc2)NC(=O)[C@H](CCC(N)=O)NC(=O)[C@H](CCC(N)=O)NC(=O)[C@@H]2CCCN2C(=O)[C@@H]2CCCN2C(=O)[C@H](CC2CCCCC2)NC(=O)[C@H](CO)NC(=O)[C@H](C)NC(=O)[C@H]([C@@H](C)O)NC(=O)[C@H]([C@@H](C)O)NC1=O [Ex. 139] (HELM PEPTIDE1{[Nle].T.T.A.S.[Cha].P.P.Q.Q.Y.[dP].P}$PEPTIDE1,PEPTIDE1,1:R1-13:R2$$$V2.0)	18 nM
CC[C@H](C)[C@@H]1NC(=O)[C@H](CO)NC(=O)[C@H](C)NC(=O)[C@H]([C@@H](C)O)NC(=O)[C@H](CCC(N)=O)NC(=O)[C@H](CCc2ccccc2)NC(=O)[C@@H]2CCCN2C(=O)[C@H]2CCCN2C(=O)[C@H](Cc2ccc(O)cc2)NC(=O)[C@H]([C@@H](C)O)NC(=O)[C@H](CCC(N)=O)NC(=O)[C@@H]2CCCN2C(=O)[C@@H]2CCCN2C1=O [Ex. 142] (HELM PEPTIDE1{[O=C([C@H](CCc1ccccc1)N[*:1])[*:2]].Q.T.A.S.I.P.P.Q.T.Y.[dP].P}$PEPTIDE1,PEPTIDE1,1:R1-13:R2$$$V2.0)	16 nM
CCCCCCCC[C@@H]1NC(=O)[C@@H]2CCCN2C(=O)[C@H]2CCCN2C(=O)[C@H](Cc2ccccc2)NC(=O)[C@@H]2CSSC[C@H](NC1=O)C(=O)N[C@@H]([C@@H](C)O)C(=O)N[C@@H](C)C(=O)N[C@@H](CO)C(=O)N[C@@H]([C@@H](C)CC)C(=O)N1CCC[C@H]1C(=O)N1CCC[C@H]1C(=O)N[C@@H](CCC(N)=O)C(=O)N2 [Ex. 145] (HELM PEPTIDE1{[CCCCCCCC[C@H](N[*:1])C(=O)[*:2]].C.T.A.S.I.P.P.Q.C.F.[dP].P}$PEPTIDE1,PEPTIDE1,2:R3-10:R3|PEPTIDE1,PEPTIDE1,1:R1-13:R2$$$V2.0)	14 nM
CCCCCCCC[C@@H]1NC(=O)[C@@H]2CCCN2C(=O)[C@H]2CCCN2C(=O)[C@H](Cc2ccc(O)cc2)NC(=O)[C@H](CCC(N)=O)NC(=O)[C@H](CCC(N)=O)NC(=O)[C@@H]2CCCN2C(=O)[C@@H]2CCCN2C(=O)[C@H]([C@@H](C)CC)NC(=O)[C@H](CO)NC(=O)[C@H](C)NC(=O)[C@H]([C@@H](C)O)NC(=O)[C@H]([C@@H](C)O)NC1=O [Ex. 147] (HELM PEPTIDE1{[CCCCCCCC[C@H](N[*:1])C(=O)[*:2]].T.T.A.S.I.P.P.Q.Q.Y.[dP].P}$PEPTIDE1,PEPTIDE1,1:R1-13:R2$$$V2.0)	11 nM
